Data from patent US11479604B2, “Immunomodulatory peptides and methods for modulating the immune system in a subject” (Recepta Biopharma S.A., priority 2017, dated 2022).

Tests used:
[1] = system: bone marrow derived dendritic cells; assay: CD74 receptor expression in myeloid dendritic cells; format: cell-based, mouse; conditions: murine dendritic cells
Procedure: After incubation the cells were stimulated with or without LPS (Sigma-Aldrich, Missouri, USA), at 200 ng/ml or tumor lysate (B16F10-Next cells) in the proportion of 30 DCs to 1 tumor cell, for 24 h. After incubation, the cells were harvested and stained with anti-CD74 (BV786) from BD Bioscience. Stained cells were acquired using LSRFortessa™ (Becton Dickinson, San Jose, Calif., USA) and data analysis was performed using the FlowJo V10 (TreeStar Inc., Ashland, Oreg., USA). The results are represented as percentage of CD74^+ cells in CD11b^+CD11c^+ or CD11c^+MHCII^+ population.
Protein lysates were separated by electrophoresis, and immunoblotting analyses were performed for: total AKT, total p44/42 MAPK (ERK1/2), total IKKα, total IkBα, total NF-kB p65, phospho-AKT (Ser473), phospho-ERK1/2 (Thr202/Tyr204), phospho-IKKα/β (Ser176/180), phospho-IkBα (Ser32) and phospho-NFkB p65 (Ser536). GAPDH was assayed for loading control. HRP-conjugated secondary antibodies were used, followed by incubation with the ECL substrate (Millipore, Billerica, Mass.). All primary and secondary antibodies were purchased from Cell Signaling Technologies (Beverly, Mass., USA). Anti-CD74 receptor was also assayed (Abcam, Cambridge, UK). Phosphorylation ratios were quantified using ImageJ software. Results are represented in arbitrary units normalized to untreated control lanes.

B16F10-Nex2 tumor cells = assay: Metastatic melanoma model in immunodeficient mice; format: in vivo, NOD/Scid/IL-2R-gamma^null mice; conditions: 250 μg i.p. on days 1-11, lungs on day 22
Procedure: B16F10-Nex2 tumor cells (2×10^5) in RPMI (100 μl) were injected in both animal groups in the tail veins on day 0. Animals were sacrificed on day 22, or 10 days after the last administration of the peptide, and their lungs were examined for dark melanotic nodules.

[2] = system: pancreas carcinoma Panc02; assay: Subcutaneous syngeneic pancreatic carcinoma model; format: in vivo, C57BL6 mice; conditions: 300 μg i.p., 5 doses every other day
Procedure: Male C57BL/6 mice, 6 to 8-week-old were obtained from the Center for Development of Experimental Models (CEDEME), Federal University of Sao Paulo (UNIFESP). For the in vivo metastatic model, C57BL/6 mice received one intravenous (i.v.) injection of 2×10^5 viable B16-F10-Next melanoma cells in 100 μL. […] The control group received 100 μL PBS. Twenty-two days later, mice (minimum n=3 per group) had their lungs harvested, and the number of macroscopic melanotic nodules were counted. The Ethical Committee of Federal University of São Paulo, Project no. 1234, 2011, approved all experiments with animals, according to International guidelines. For the subcutaneous model, mice were injected with 5×10^5 tumor cells suspended in 100 μL of PBS in the right flank via the subcutaneous route. The peptide (300 μg) was solubilized in 10 μL of distilled H2O and 90 μL of PBS and injected per mouse via the intraperitoneal route. The administration of the peptide was performed in 5 alternate days initiating one day after tumor challenge. Tumor longitudinal diameter (D) and transverse diameter (d) were measured every 2 days until the tumor volume reached 3,000 mm3. Animals were sacrificed when the allowed volume was reached. Volume was calculated using the formula v=Dd^2×0.52. […]

[3] = system: B16F10-Nex2 melanoma cells; assay: Therapeutic adoptive transfer of peptide-stimulated dendritic cells, metastatic melanoma; format: in vivo, syngeneic mice; conditions: DCs administered 8 days after melanoma challenge; compared to unstimulated or Rb10A1 treated DCs
Excerpt: DCs were inoculated s.c. in syngeneic mice, 8 days after the melanoma tumor cell challenge. The B16F10-Nex2 cell lysate was not used to prime DCs in this assay to avoid excess tumor antigen derived from tumor cell lysis in vivo, and a tolerogenic response. Lung nodules of melanoma cells injected i.v. and formed after 7 days and after 12 days, from 3 independent experiments were combined to represent colonization clusters for comparison with the therapeutic experiment of FIG. 6C.

[4] = system: human monocyte-derived dendritic cells (mo-DC); assay: Membrane phenotype of human mo-DC from healthy donors; format: cell-based
Procedure: Peripheral blood mononuclear cells (PBMCs) were isolated by centrifugation over Ficoll-Paque Plus (GE Healthcare). After a 2 h-incubation in plastic 6-well plates, non-adherent cells were removed from culture and adherent cells (monocytes) were cultivated for 7 days in RPMI-1640 culture medium (Gibco, Grand Island, N.Y., USA), supplemented with 10% FCS (Gibco) plus antibiotic-antimycotic (Gibco) and in the presence of GM-CSF (50 ng/ml—Peprotech, Mexico) and IL-4 (50 ng/ml—Peprotech). At day 5 of culture TNF-α (50 ng/ml; Peprotech, Mexico) was added for mo-DC maturation.
Human cells were analyzed in a similar manner, but staining was performed in BSA-PBS, without EDTA. Antibodies against CD11c, CD14, CD80, CD83, CD86, HLA-ABC, HLA-DR, CCR7, PD-L1, conjugated with different fluorochromes and live/dead labeling (Molecular Probes, Oregon, USA) were used. Acquisition was performed in a FACSCanto II analyzer (BD Biosciences) and analyzed with the FlowJo Software X.10.07r2 (Tree Star).

splenocytes = assay: Splenocyte cytokine production in melanoma-bearing treated mice (ELISA); format: in vivo; conditions: 300 μg i.p. 5 consecutive days
Procedure: Mice were challenged with 5×10^5 B16F10-Nex2 cells via the i.v. route. […] Peptides at 300 μg solubilized in 10 μl distilled H2O and 90 μl of PBS were injected via i.p. route per animal, for 5 consecutive days initiating one day after tumor cell challenge. Seventeen days after tumor challenge mice were sacrificed and spleens were removed. Splenocytes after incubation in hemolysis buffer were suspended in R10 medium and plated in 6-well plates and 10^6 cells/well. Cells were incubated for 72 h with or without tumor cell lysate (from 10^5 B16F10-Nex2 cells) in triplicate. The supernatants were collected, and cytokines measured by ELISA (FIG. 11).

Substance: [CARGETARATFAYWGQGC], NH2 (C-C) [Rb9]
- expression of CD74 in CD11b+CD11c+ and CD11c+MHC-II+ cells [1]: increased expression
- protection against lung nodules (B16F10-Nex2 tumor cells): No protection
- deaths up to the 40th day [2]: no deaths were recorded
- s.c. tumor growth [2]: significantly delayed
- protection by peptide-stimulated DCs (lung nodules) [3]: significant protection
- expression of activation markers on immature mo-DC ([4]; 50 μg/mL at day 5, analysis 2 days later): enhanced the expression of activation markers
- expression of maturation markers on mo-DC with TNF-alpha ([4]; 50 μg/mL peptide + TNF-alpha 50 ng/mL at day 5): further enhancing the expression of maturation markers
- IL-12 production in splenocytes (splenocytes; no stimulus necessary): comparable in the three groups
- IFN-gamma production in splenocytes (splenocytes; splenocytes with tumor cell lysate 72 h, relative to untreated control): increased
- IL-10 production in splenocytes (splenocytes; with tumor cell lysate): no effect
- TNF-alpha production in splenocytes (splenocytes; with tumor cell lysate): no effect
- IL-6 production in splenocytes (splenocytes; with tumor cell lysate, relative to untreated control): decreased
